From PubChem BioAssay AID720614 (Broad Institute, 2013)
Records with an inconclusive call do not appear. The source made the active and inactive calls. The rule behind the calls is not given here.

Tests used:
[1] = system: SNB19 (HRAS) caspase 3/7 apoptosis luminescence, multiple timepoints; experiment: caspase 3/7 activation in SNB19 cells, mechanism study for HRAS target identification, cell-based, luminescence, several timepoints, dry powder (AID 720614)
[2] = as above; settings: SNB19 (HRAS) caspase 3/7 apoptosis luminescence, multiple timepoints; for caspase 3/7 activation: at 35 µM (top of the series); for max activity: measured here: timepoint 3 max caspase activation, stronger effect = higher value

With `CO[C@H]1C[C@@H]2CC[C@@H](C)[C@@](O)(O2)C(=O)C(=O)N2CCCC[C@H]2C(=O)O[C@H]([C@H](C)C[C@@H]2CC[C@@H](O)[C@H](OC)C2)CC(=O)[C@H](C)/C=C(\C)[C@@H](O)[C@@H](OC)C(=O)[C@H](C)C[C@H](C)/C=C/C=C/C=C/1C` the AC40 ([1]; measured here: timepoint 2 caspase activation) was > 35 µM, the caspase 3/7 activation [2] was 2.8% (inactive) and the max activity ([2]; at 0.008 µM) was 32%.
In the case of `Cc1onc(C(=O)N2CCN(C(c3ccc(Cl)cc3)c3ccc(Cl)cc3)CC2)c1[N+](=O)[O-]`, the caspase 3/7 activation [2] is reported as 12.2% (inactive) and the max activity ([2]; at 16 µM) is reported as -17.3%.
For `CCC(=O)N(c1ccc(OC)c(Cl)c1)C(C(=O)NCCc1ccccc1)c1cccs1` (stereo unspecified), the caspase 3/7 activation [2] was -10.3% (inactive) and the max activity ([2]; at 16 µM) was 18.7%.
With `CC(C)(C)OC(=O)NCCOCCOCCOc1ccc(N(C(=O)CCl)C(C(=O)NCCc2ccccc2)c2cccs2)cc1Cl` (stereo unspecified) the AC40 [1] was > 35 µM (inactive) and the max activity ([2]; at 0.5 µM) was 18.7%.
In the case of `Cc1onc(C(=O)N2CCN(C(c3ccc(Cl)cc3)c3ccc(OCCOCCOCCNC(=O)OC(C)(C)C)cc3)CC2)c1[N+](=O)[O-]` (stereo unspecified), the caspase 3/7 activation [2] is reported as 12.2% (inactive) and the max activity ([2]; at 0.26 µM) is reported as 25.3%.
